Data as given in PubChem BioAssay (NCI).
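Five compound concentrations were applied to cells in 96-well plates for 48 hours; endpoints were derived by simple linear interpolation of the resulting dose-response curve. TGI: concentration producing complete growth inhibition.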 Where a SMILES comes first, the peptide text is derived from it. The star is where a group is joined. Cbz = O=C(OCc1ccccc1)*

Columns and labels:
Assay in all cases: DTP human tumour cell line panel, 48 h
[1] = tested on: COLO 205 colon
[2] = tested on: SR leukemia
[3] = tested on: SK-MEL-28 melanoma
[4] = tested on: HCT-116 colon
[5] = tested on: UACC-62 melanoma
[6] = tested on: BT-549 breast
[7] = tested on: NCI-H460 lung
[8] = tested on: U251 CNS
[9] = tested on: NCI/ADR-RES ovarian
[10] = tested on: EKVX NSCLC
[11] = tested on: MALME-3M melanoma
[12] = tested on: SK-MEL-2 melanoma
[13] = tested on: RPMI-8226 leukemia
[14] = tested on: NCI-H23 lung
[15] = tested on: SN12C renal
[16] = tested on: A549 NSCLC
[17] = tested on: MDA-MB-231 breast
[18] = tested on: OVCAR-3 ovarian
[19] = tested on: NCI-H226 lung
[20] = tested on: SNB-75 CNS

| Structure (SMILES) | TGI [1] | TGI [2] | TGI [3] | TGI [4] | TGI [5] | TGI [6] | TGI [7] | TGI [8] | TGI [9] | TGI [10] | TGI [11] | TGI [12] | TGI [13] | TGI [14] | TGI [15] | TGI [16] | TGI [17] | TGI [18] | TGI [19] | TGI [20] |
| --- | --- | --- | --- | --- | --- | --- | --- | --- | --- | --- | --- | --- | --- | --- | --- | --- | --- | --- | --- | --- |
| COC(=O)C1=C(O)c2ccc(Cl)cc2S(=O)(=O)N1C | > 100 µM | > 100 µM | > 100 µM | > 100 µM | > 100 µM | > 100 µM | > 100 µM | > 100 µM | 95 µM | > 100 µM | > 100 µM | > 100 µM | > 100 µM | > 100 µM | > 100 µM | > 100 µM | > 100 µM | – | – | – |
| Cc1cc2c(cc1C(=O)c1ccc(N)cc1)OCO2 | 41.5 µM | > 100 µM | – | > 100 µM | > 100 µM | > 100 µM | > 100 µM | > 100 µM | 87.7 µM | > 100 µM | > 100 µM | 74 µM | > 100 µM | > 100 µM | > 100 µM | > 100 µM | > 100 µM | 0.966 µM | – | – |
| CCOC(=O)c1nc2cc(F)c(N3CCOCC3)cc2[nH]c1=O | > 100 µM | > 100 µM | > 100 µM | > 100 µM | > 100 µM | > 100 µM | > 100 µM | > 100 µM | > 100 µM | > 100 µM | > 100 µM | > 100 µM | > 100 µM | > 100 µM | > 100 µM | > 100 µM | > 100 µM | > 100 µM | > 100 µM | > 100 µM |
| Cc1ncc([N+](=O)[O-])n1CCNCCCCn1ccnc1[N+](=O)[O-] | > 100 µM | > 100 µM | > 100 µM | > 100 µM | > 100 µM | > 100 µM | > 100 µM | > 100 µM | > 100 µM | > 100 µM | > 100 µM | > 100 µM | > 100 µM | > 100 µM | > 100 µM | > 100 µM | > 100 µM | > 100 µM | > 100 µM | > 100 µM |
| CC(NC(=O)C(NC(=O)OCc1ccccc1)C(C)C)C(=O)NCC(=O)O (stereo not drawn) (Cbz-Val-Ala-Gly-OH; configuration not given here) | > 100 µM | > 100 µM | > 100 µM | > 100 µM | > 100 µM | > 100 µM | > 100 µM | > 100 µM | > 100 µM | > 100 µM | > 100 µM | > 100 µM | > 100 µM | > 100 µM | > 100 µM | > 100 µM | > 100 µM | > 100 µM | > 100 µM | – |
| O=C(N(O)c1ccccc1Cl)C(O)(c1ccccc1)c1ccccc1 | > 100 µM | 49.9 µM | > 100 µM | > 100 µM | > 100 µM | > 100 µM | > 100 µM | > 100 µM | > 100 µM | > 100 µM | > 100 µM | > 100 µM | 69 µM | > 100 µM | > 100 µM | > 100 µM | > 100 µM | > 100 µM | > 100 µM | – |
| CC(C)C(C/C=C1\CC(CO)(COC(=O)C(C)(C)C)OC1=O)C(C)C (stereo not given) | 11.4 µM | > 100 µM | 26.4 µM | 22.7 µM | 31.3 µM | 24.5 µM | 31 µM | 29.8 µM | 32.4 µM | 24.8 µM | 23.5 µM | 39.5 µM | – | 19.7 µM | 19.8 µM | 16.6 µM | 21.7 µM | 26.4 µM | 19.8 µM | 15.2 µM |
| Cc1c2cccc-2c(OCCO)cc2c3ccccc3n(C)c12 | 3.24 µM | 6.12 µM | 21.4 µM | 12.8 µM | 17.5 µM | 13.4 µM | 18.3 µM | 5.84 µM | > 100 µM | 8.69 µM | 17 µM | 12.8 µM | – | > 100 µM | 14.4 µM | 15.5 µM | 10 µM | 5.56 µM | 24.2 µM | 35.5 µM |
| O=C(Cn1c(-c2ccccc2)cc2ccccc21)N1CCCC1 | > 100 µM | > 100 µM | – | > 100 µM | > 100 µM | > 100 µM | > 100 µM | – | > 100 µM | > 100 µM | > 100 µM | > 100 µM | – | – | > 100 µM | > 100 µM | > 100 µM | > 100 µM | > 100 µM | > 100 µM |
| NCC(=O)Nc1ccc(S(=O)(=O)O)c2cc(S(=O)(=O)O)cc(S(=O)(=O)O)c12 | > 100 µM | > 100 µM | > 100 µM | > 100 µM | > 100 µM | > 100 µM | – | > 100 µM | > 100 µM | > 100 µM | > 100 µM | > 100 µM | > 100 µM | > 100 µM | > 100 µM | > 100 µM | > 100 µM | > 100 µM | > 100 µM | > 100 µM |
